How the values were obtained:
Type in all cases: cell-based
[1] = molecular target: T1, human TLR7 (Homo sapiens, UniProt Q9NYK1); assay: TLR7 inhibition reporter assay (HEK-Blue SEAP reporter, gardiquimod stimulation); settings: HEK-Blue cells overexpressing human TLR7, SEAP reporter, gardiquimod 7.5 μM, 22 hour incubation
T1 construct: host or cells: HEK-Blue cells
T1 sequence (Q9NYK1 27-1049): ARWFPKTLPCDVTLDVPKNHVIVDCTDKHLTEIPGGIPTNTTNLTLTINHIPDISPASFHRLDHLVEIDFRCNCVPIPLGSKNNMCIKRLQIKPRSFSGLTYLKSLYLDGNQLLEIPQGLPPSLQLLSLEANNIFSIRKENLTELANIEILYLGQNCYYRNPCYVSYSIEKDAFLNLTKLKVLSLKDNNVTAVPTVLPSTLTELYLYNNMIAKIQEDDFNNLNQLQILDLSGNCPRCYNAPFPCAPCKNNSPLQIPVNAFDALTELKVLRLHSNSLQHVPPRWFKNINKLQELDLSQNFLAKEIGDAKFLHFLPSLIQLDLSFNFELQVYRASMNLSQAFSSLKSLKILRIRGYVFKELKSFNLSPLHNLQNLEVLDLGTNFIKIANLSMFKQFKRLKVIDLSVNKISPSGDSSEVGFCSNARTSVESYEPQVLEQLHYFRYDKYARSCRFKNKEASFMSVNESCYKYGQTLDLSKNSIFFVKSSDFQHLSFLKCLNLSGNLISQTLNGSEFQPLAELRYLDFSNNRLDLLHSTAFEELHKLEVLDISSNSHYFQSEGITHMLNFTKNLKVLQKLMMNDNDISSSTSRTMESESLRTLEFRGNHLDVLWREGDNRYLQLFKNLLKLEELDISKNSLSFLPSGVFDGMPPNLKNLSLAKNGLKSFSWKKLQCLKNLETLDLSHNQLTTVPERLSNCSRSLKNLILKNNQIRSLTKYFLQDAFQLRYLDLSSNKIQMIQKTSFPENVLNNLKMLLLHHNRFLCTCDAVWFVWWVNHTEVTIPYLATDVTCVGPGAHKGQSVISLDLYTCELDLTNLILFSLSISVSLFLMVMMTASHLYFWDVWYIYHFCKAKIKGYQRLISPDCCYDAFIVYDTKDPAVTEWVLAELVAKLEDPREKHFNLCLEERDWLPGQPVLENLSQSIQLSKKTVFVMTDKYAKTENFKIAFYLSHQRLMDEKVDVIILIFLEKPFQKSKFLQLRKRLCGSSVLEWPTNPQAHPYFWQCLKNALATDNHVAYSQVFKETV
Procedure: (§1) TLR7/8/9 Inhibition Reporter Assays
(§2) HEK-Blue™-cells (Invivogen) overexpressing human TLR7, TLR8 or TLR9 receptors were used for screening inhibitors of these receptors using an inducible SEAP (secreted embryonic alkaline phosphatase) reporter gene under the control of the IFN-β minimal promoter fused to five NF-κB and AP-1-binding sites. Briefly, cells are seeded into Greiner 384 well plates (15000 cells per well for TLR7, 20,000 for TLR8 and 25,000 for TLR9) and then treated with test compounds in DMSO to yield a final dose response concentration range of 0.05 nM-50 μM. After a 30 minute compound pre-treatment at room temperature, the cells are then stimulated with a TLR7 ligand (gardiquimod at a final concentration of 7.5 μM), TLR8 ligand (R848 at a final concentration of 15.9 μM) or TLR9 ligand (ODN2006 at a final concentration of 5 nM) to activate NF-κB and AP-1 which induce the production of SEAP. After a 22 hour incubation at 37° C., 5% CO2, SEAP levels are determined with the addition of HEK-Blue™ Detection reagent (Invivogen), a cell culture medium that allows for detection of SEAP, according to manufacturer's specifications. The percent inhibition is determined as the % reduction in the HEK-Blue signal present in wells treated with agonist plus DMSO alone compared to wells treated with a known inhibitor.

[2] = molecular target: T2, human TLR8 (Homo sapiens, UniProt Q9NR97); assay: TLR8 inhibition reporter assay (HEK-Blue SEAP reporter, R848 stimulation); settings: HEK-Blue cells overexpressing human TLR8, SEAP reporter, R848 15.9 μM, 22 hour incubation
T2 construct: host or cells: HEK-Blue cells
T2 sequence (Q9NR97 27-1041): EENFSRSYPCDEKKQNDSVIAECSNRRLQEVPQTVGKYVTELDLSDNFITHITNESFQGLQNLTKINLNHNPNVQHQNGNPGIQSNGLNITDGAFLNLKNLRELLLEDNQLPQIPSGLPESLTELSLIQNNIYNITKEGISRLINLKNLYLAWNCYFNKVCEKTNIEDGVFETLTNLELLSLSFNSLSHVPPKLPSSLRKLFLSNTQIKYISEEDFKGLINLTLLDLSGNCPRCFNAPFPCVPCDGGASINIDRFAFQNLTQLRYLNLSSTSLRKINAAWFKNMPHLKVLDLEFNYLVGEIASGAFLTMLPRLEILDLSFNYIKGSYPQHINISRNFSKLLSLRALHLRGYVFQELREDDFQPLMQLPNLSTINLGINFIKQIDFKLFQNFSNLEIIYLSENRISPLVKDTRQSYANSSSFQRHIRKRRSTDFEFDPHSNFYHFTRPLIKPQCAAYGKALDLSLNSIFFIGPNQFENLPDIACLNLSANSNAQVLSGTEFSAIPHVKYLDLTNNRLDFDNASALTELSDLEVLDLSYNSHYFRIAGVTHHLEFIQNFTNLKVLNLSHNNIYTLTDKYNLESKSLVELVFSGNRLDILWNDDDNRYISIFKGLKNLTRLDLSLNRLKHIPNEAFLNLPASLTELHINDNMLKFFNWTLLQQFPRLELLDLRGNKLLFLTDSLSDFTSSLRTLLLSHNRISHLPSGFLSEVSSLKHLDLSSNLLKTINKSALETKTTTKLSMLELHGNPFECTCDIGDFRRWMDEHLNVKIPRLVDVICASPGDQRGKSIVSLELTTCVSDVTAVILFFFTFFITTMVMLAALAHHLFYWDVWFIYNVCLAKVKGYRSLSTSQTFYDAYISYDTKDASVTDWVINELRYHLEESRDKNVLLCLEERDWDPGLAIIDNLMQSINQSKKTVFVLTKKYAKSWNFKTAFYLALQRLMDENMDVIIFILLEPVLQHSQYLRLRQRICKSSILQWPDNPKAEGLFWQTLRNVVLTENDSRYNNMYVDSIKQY
Procedure: as §1, §2

[3] = molecular target: T3, human TLR9 (Homo sapiens, UniProt Q9NR96); assay: TLR9 inhibition reporter assay (HEK-Blue SEAP reporter, ODN2006 stimulation); settings: HEK-Blue cells overexpressing human TLR9, SEAP reporter, ODN2006 5 nM, 22 hour incubation
T3 construct: host or cells: HEK-Blue cells
T3 sequence (Q9NR96 26-1032): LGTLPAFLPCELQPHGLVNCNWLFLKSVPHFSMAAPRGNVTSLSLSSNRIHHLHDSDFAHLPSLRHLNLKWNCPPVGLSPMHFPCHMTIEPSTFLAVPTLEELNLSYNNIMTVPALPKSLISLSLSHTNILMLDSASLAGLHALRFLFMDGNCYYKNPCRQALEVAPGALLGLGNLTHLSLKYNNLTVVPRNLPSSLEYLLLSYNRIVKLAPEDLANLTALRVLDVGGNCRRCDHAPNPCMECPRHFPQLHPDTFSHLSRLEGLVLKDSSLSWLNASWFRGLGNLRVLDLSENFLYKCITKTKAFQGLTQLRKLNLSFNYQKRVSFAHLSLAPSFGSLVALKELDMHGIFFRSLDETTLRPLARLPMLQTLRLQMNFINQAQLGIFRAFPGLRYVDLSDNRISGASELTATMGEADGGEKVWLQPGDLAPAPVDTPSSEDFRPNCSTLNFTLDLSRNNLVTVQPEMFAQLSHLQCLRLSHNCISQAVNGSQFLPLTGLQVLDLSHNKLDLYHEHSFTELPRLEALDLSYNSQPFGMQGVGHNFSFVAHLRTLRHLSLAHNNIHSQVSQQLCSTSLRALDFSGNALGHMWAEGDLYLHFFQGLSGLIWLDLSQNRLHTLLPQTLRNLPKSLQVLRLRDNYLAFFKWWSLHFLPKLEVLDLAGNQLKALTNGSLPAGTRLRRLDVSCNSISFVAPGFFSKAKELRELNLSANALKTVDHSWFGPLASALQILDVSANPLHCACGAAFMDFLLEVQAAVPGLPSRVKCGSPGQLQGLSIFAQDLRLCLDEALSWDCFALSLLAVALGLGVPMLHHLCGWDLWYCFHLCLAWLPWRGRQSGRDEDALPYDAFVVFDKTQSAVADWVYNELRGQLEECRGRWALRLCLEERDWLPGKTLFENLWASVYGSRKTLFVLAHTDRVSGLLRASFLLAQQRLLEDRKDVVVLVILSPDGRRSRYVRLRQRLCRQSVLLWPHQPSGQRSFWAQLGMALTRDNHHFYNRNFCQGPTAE
Procedure: as §1, §2

| IC50 [1] [nM] | IC50 [2] [nM] | IC50 [3] [nM] | Compound |
| --- | --- | --- | --- |
| 15.6 | 0.9 | 3070 | Cc1c(-c2[nH]c3ccc(C4CCN(C5CCOCC5)CC4)cc3c2C(C)C)cn(C)c(=O)c1C#N [Example 222, 5-(3-isopropyl-5-(1-(tetrahydro-2H-pyran-4-yl)piperidin-4-yl)-1H-indol-2-yl)-1,4-dimethyl-2-oxo-1,2-dihydropyridine-3-carbonitrile] |
| 20.4 | 214 | ≥ 50000 | Cc1c(-c2[nH]c3ccc(C4CCN(C(=O)C(F)(F)F)CC4)cc3c2C(C)C)cn(C)c(=O)c1Cl [Example 302, 3-chloro-5-(3-isopropyl-5-(1-(2,2,2-trifluoroacetyl)piperidin-4-yl)-1H-indol-2-yl)-1,4-dimethylpyridin-2(1H)-one] |
| 8.6 | 0.8 | 487 | CCCN1CCC(c2ccc3[nH]c(-c4cc(-c5cnn(C)c5)c(=O)n(C)c4)c(C(C)C)c3c2)CC1 [Example 334, 5-(3-isopropyl-5-(1-propylpiperidin-4-yl)-1H-indol-2-yl)-1-methyl-3-(1-methyl-1H-pyrazol-4-yl) pyridin-2(1H)-one] |
| 10.9 | 1.6 | 4330 | Cc1c(-c2[nH]c3ccc(C4CCN(CC5(O)CCOCC5)CC4)cc3c2C(C)C)cn(C)c(=O)c1C [Example 319, 5-(5-(1-((4-hydroxytetrahydro-2H-pyran-4-yl)methyl)piperidin-4-yl)-3-isopropyl-1H-indol-2-yl)-1,3,4-trimethylpyridin-2(1H)-one] |
| 4.2 | 2.7 | 2660 | Cc1c(-c2[nH]c3ccc(C4CCN(CC5CCOC5)CC4)cc3c2C(C)C)cn(C)c(=O)c1Cl (stereo not drawn) [Example 252, 3-chloro-5-(3-isopropyl-5-(1-((tetrahydrofuran-3-yl)methyl)piperidin-4-yl)-1H-indol-2-yl)-1,4-dimethylpyridin-2(1H)-one] |

Further lines, the compound ahead of its results:

| Compound | IC50 [1] [nM] | IC50 [2] [nM] | IC50 [3] [nM] |
| --- | --- | --- | --- |
| CC(C)c1c(-c2cc(-c3cncnc3)c(=O)n(C)c2)[nH]c2ccc(C3CCN(CCS(C)(=O)=O)CC3)cc12 [Example 108, 5-(3-isopropyl-5-(1-(2-(methylsulfonyl)ethyl)piperidin-4-yl)-1H-indol-2-yl)-1-methyl-3-(pyrimidin-5-yl) pyridin-2(1H)-one] | 32.8 | 2 | 7540 |
| Cc1c(-c2[nH]c3ccc(C4CCN(CC(C)(C)O)CC4)c(F)c3c2C(C)C)cn(C)c(=O)c1Cl [Example 327, 3-chloro-5-(4-fluoro-5-(1-(2-hydroxy-2-methylpropyl)piperidin-4-yl)-3-isopropyl-1H-indol-2-yl)-1,4-dimethylpyridin-2(1H)-one] | 6 | 1.6 | 3280 |
| CC(C)c1c(-c2cc(/C=C/C3CC3)c(=O)n(C)c2)[nH]c2ccc(C3CCNCC3)cc12 [Example 52, (E)-3-(2-cyclopropylvinyl)-5-(3-isopropyl-5-(piperidin-4-yl)-1H-indol-2-yl)-1-methylpyridin-2(1H)-one] | 185 | 142 | 1520 |
| CCCN1CCC(c2ccc3[nH]c(-c4cc(-c5cncc(C)c5)c(=O)n(C)c4)c(C(C)C)c3c2)CC1 [Example 332, 5-(3-isopropyl-5-(1-propylpiperidin-4-yl)-1H-indol-2-yl)-1,5′-dimethyl-[3,3′-bipyridin]-2(1H)-one] | 4.9 | 1.1 | 789 |
| CNC(C)(C)C(=O)N1CCC(c2ccc3[nH]c(-c4cc(C)c(=O)n(C)c4)c(C(C)C)c3c2)CC1 [Example 298, 5-(3-isopropyl-5-(1-(2-methyl-2-(methylamino)propanoyl)piperidin-4-yl)-1H-indol-2-yl)-1,3-dimethylpyridin-2(1H)-one] | 169 | 148 | 21300 |
| COc1cc(-c2[nH]c3ccc(C4CCN(C(=O)CN(C)C)CC4)cc3c2C(C)C)c(C)n(C)c1=O [Example 275, 5-(5-(1-(dimethylglycyl)piperidin-4-yl)-3-isopropyl-1H-indol-2-yl)-3-methoxy-1,6-dimethylpyridin-2(1H)-one] | 194 | 95.7 | 3190 |

Reference: patent US11447466B2, “Substituted indole compounds useful as inhibitors of TLR7/8/9” (BRISTOL-MYERS SQUIBB COMPANY, priority 2017, dated 2022)
